These results are taken from patent US20100130616A1, “SALT OF ALISKIREN WITH OROTIC ACID” (NOVARTIS AG, priority 2006, published 2010).

The structures appear in SMILES notation. Counter-ions that a name gives are not always drawn.

Common to all, as to type: physicochemical
A short description of data set [1]: 1-Week Chemical Stability Test, total impurities by HPLC-UV 230 nm. The text has this: (§1) The exceptional stability of the orotate salt of aliskiren towards water may also be shown in stability tests.
The nature of data set [2]: stability test towards water, water content after storage. The note with it: open container and sealed ampoule, four weeks at 40° C. and 75% relative humidity.
Description: as §1

The nature of data set [3]: dynamic vapour sorption (DVS-1), isothermal water absorption or loss as a function of relative humidity. The note with it: for Change in Mass (%) Desorption / Change in Mass (%) Sorption: 25° C., 2 hours after equilibration. As for the experimental part:
A clear characterisation of this property is achieved by means of isothermal measurements over predetermined time intervals and predetermined relative humidity using dynamic vapour sorption (DVS-1 from the company Surface Measurement Systems LTD, Marlow, Buckinghamshire, UK). Table 2 illustrates the mass change, i.e. the water absorption or loss as a function of relative humidity at 25° C. for a sample of the orotate salt of aliskiren and for a period of 2 hours after equilibration at each humidity level. The change in mass during the sorption and desorption cycle are shown. The measurement error of this sorption method based on thermogravimetry is about 0.1%.

With `COCCCOc1cc(C[C@@H](C[C@H](N)[C@@H](O)C[C@H](C(=O)NCC(C)(C)C(N)=O)C(C)C)C(C)C)ccc1OC` [HemiFumarate, aliskiren hemifumarate, reference compound], the “Total Impurities (HPLC-UV, 230 nm), %” value worked out at 1.1% in data set [1] (1 week, 50 C. sealed); 9.3% in data set [1] (1 week, 50 C./75% RH); 18.1% in data set [1] (1 week, 80 C. sealed); 64.3% in data set [1] (1 week, 80 C./75% RH); 1.1% in data set [1] (Unstressed).

Take `COCCCOc1cc(CC(C[C@H](N)[C@@H](O)CC(C(=O)NCC(C)(C)C(N)=O)C(C)C)C(C)C)ccc1OC` (stereo partly shown) [orotate salt of aliskiren]: the “Total Impurities (HPLC-UV, 230 nm), %” value stood at 0.3% in data set [1] (1 week, 50 C. sealed); 0.3% in data set [1] (1 week, 50 C./75% RH); 0.4% in data set [1] (1 week, 80 C. sealed); 0.5% in data set [1] (1 week, 80 C./75% RH); 0.3% in data set [1] (Unstressed). Moreover, the water content entry in data set [2] is “remains constant”. The same compound had a moisture uptake in data set [3] (at 80% r.h.) of 0.4%. Further, the hygroscopicity entry in data set [3] (from moisture uptake at 80% r.h.) is “slightly-hygroscopic”. The “Change in Mass (%) Desorption” value in data set [3] (relative humidity 0%) is 0.011%; in data set [3] (relative humidity 30%) it was 0.611%; in data set [3] (relative humidity 50%), 0.852%; in data set [3] (relative humidity 70%), 1.326%; in data set [3] (relative humidity 90%), 2.818%; in data set [3] (relative humidity 95%) it was 7.104%. Further, the “Change in Mass (%) Sorption” value in data set [3] (relative humidity 0%) was 0.000%; in data set [3] (relative humidity 30%), 0.133%; in data set [3] (relative humidity 50%) it was 0.214%; in data set [3] (relative humidity 70%), 0.307%; in data set [3] (relative humidity 90%), 0.673%; in data set [3] (relative humidity 95%) it was 7.104%.
